{"source": "ChEMBL document CHEMBL1142611", "about": "“Neovibsanin F and its congeners, rearranged vibsane-type diterpenes from Viburnum suspensum” (J Nat Prod, 2006)", "key": {"Artemia": {"tested_on": "Artemia", "assay": "Toxicity in brine shrimp at 100 ug/mL", "format": "organism-based", "details": "in vivo; call rule not given here"}, "KB": {"tested_on": "KB", "assay": "Cytotoxicity against human KB cells", "format": "functional, cell-based"}, "[1]": {"assay": "Toxicity in brine shrimp", "format": "organism-based", "details": "artemia, in vivo; read-out: LD50 (the source's name)"}}}
{"smiles": "CC(=O)C[C@@H]1OC(=O)C2=C1[C@H](/C=C/OC(=O)C=C(C)C)[C@@]1(C)CC[C@H](C(C)(C)O)[C@@H]2C1", "values": [{"measurement": "Activity", "setting": "Artemia", "value": "Not Active"}]}
{"smiles": "CC(=O)C[C@@H]1OCC2=C1[C@H](/C=C/OC(=O)C=C(C)C)[C@@]1(C)CC[C@H](C(C)(C)O)[C@@H]2C1", "values": [{"measurement": "Activity", "setting": "Artemia", "value": "Not Active"}]}
{"smiles": "COc1cccc2c1C(=O)c1c(O)c3c(c(O)c1C2=O)C[C@@](O)(C(=O)CO)C[C@@H]3O[C@H]1C[C@H](N)[C@H](O)[C@H](C)O1", "note": "[DOXORUBICIN]", "values": [{"measurement": "IC50", "setting": "KB", "value": 0.007, "unit": "µM"}]}
{"smiles": "CC(=O)C[C@@H]1OCC2=C1[C@H](/C=C/OC(=O)C=C(C)C)[C@@]1(C)CC[C@@H](C(C)(C)O)[C@@H]2C1", "note": "[NEOVIBSANIN F]", "values": [{"measurement": "LC50", "setting": "[1]", "value": 46, "unit": "µg/mL"}]}
{"smiles": "CC(=O)C[C@@H]1OCC2=C1[C@H](/C=C/OC(=O)C=C(C)C)[C@@](C)(CCC=C(C)C)C[C@H]2O", "note": "[NEOVIBSANIN I]", "values": [{"measurement": "IC50", "setting": "KB", "value": 18, "unit": "µM"}]}
{"smiles": "CC(C)=CCC[C@]1(C)/C=C/[C@@H](OC(=O)C=C(C)C)[C@](C)(O)/C=C/C(=O)/C(CO)=C\\C1", "note": "[VIBSANIN B]", "values": [{"measurement": "IC50", "setting": "KB", "value": 3.5, "unit": "µM"}, {"measurement": "LC50", "setting": "[1]", "value": 17.5, "unit": "µg/mL"}]}
